In patent US8058243B2, “Method for treating a brain cancer with ifenprodil” (HSC Research and Development Limited Partnership, priority 2006, dated 2011):
Where a name gives a salt, the structure may show the parent alone. Read-outs that look alike come from different tables or passages of the source.

Tested on: murine neural precursor cells (neurosphere cultures)
Assay: HTS of LOPAC library against secondary neurosphere cultures, MTT proliferation assay at 3 μM, day 7 (z score, P value)
Format: cell-based, mouse
[1] = LOPAC primary screen, neurosphere MTT proliferation, 3 μM, day 7
[2] = yes/no: significantly inhibited neurosphere proliferation in the primary screen
[3] = yes/no: significantly inhibited neurosphere proliferation (P<0.01) in primary screen
[4] = LOPAC screen, neurosphere MTT proliferation, 3 μM, day 7
[5] = LOPAC library screen at 3 μM, secondary neurosphere cultures, MTT
[6] = yes = significantly inhibited neurosphere proliferation (P<0.01) in the primary screen

Row | Molecule | Z score [1] | Z score (168 h, 3 µM) | Activity [3] | Z Score (168 h, 3 µM) | further results
1 | CCCN(CCc1ccccc1)C1CCc2c(O)cccc2C1.Cl (racemic) [(±)-PPHT hydrochloride] | −1.915 |  |  |  | Activity (yes/no: significantly inhibited neurosphere proliferation (P<0.01) in the primary screen): no
2 | O=C1c2c(O)cc(O)cc2O[C@H](c2ccc(O)c(O)c2)[C@H]1O (racemic) [(±)-Taxifolin] |  | 1.321 |  |  | Activity [2]: no
3 | COc1cc(C(O)C(=O)O)ccc1O (racemic) [(±)-Vanillylmandelic acid] |  | −1.811 | no |  | 
4 | O=C(O)C1CN(CCCP(=O)(O)O)CCN1 (racemic) [(±)-CPP] |  |  | no |  | Z score [4]: 0.321
5 | CCOC(=O)c1ncn2c1CN(C)C(=O)c1cc(F)ccc1-2 [Flumazenil] | −0.366 |  |  |  | Activity: no; Z Score [5]: −0.3664
6 | N[C@@H](Cc1ccc(O)c(I)c1)C(=O)O [3-Iodo-L-tyrosine] |  | −0.048 | no | −0.04844 | 
7 | R(−)-2,10,11-Trihydroxy-N-propylnoraporphine hydrobromide |  |  |  |  | Z Score: −2.744
8 | CN(C)CCCO[C@@H]1[C@H]2OC(C)(C)O[C@H]2O[C@@H]1[C@H](O)CO [Amiprilose hydrochloride] |  | −0.778 |  | −0.7783 | Activity [2]: no
9 | NCCS [Cysteamine hydrochloride] | −0.599 |  |  |  | Z Score [5]: −0.5989; Activity [6]: no
10 | CC(C)[N+](C)(CCOC(=O)C1c2ccccc2Oc2ccccc21)C(C)C [Propantheline bromide] |  | −1.534 |  | −1.534 | Activity (yes/no: significantly inhibited neurosphere proliferation in primary screen): no
11 | Nc1ncnc2c1ncn2C1CCCC1 [9-cyclopentyladenine] |  | 0.499 | no | 0.4988 | 
12 | Fc1ccc(C(c2ccc(F)cc2)N2CCN(C/C=C/c3ccccc3)CC2)cc1 [Flunarizine dihydrochloride] | 0.395 |  | no |  | Z Score (LOPAC library screen, 3 μM, MTT, neurosphere cultures): 0.3954
13 | CN(C)C(=O)C(CCN1CCC(O)(c2ccc(Cl)cc2)CC1)(c1ccccc1)c1ccccc1 [Loperamide hydrochloride] | −0.498 |  | no |  | Z Score: −0.4976
14 | Br.Br.N=C(N)SCCN [2-(2-Aminoethyl)isothiourea dihydrobromide] |  | −1.251 |  | −1.251 | Activity [2]: no
15 | CCCCCCCCCC(=O)NC(CN1CCOCC1)[C@H](O)c1ccccc1.Cl (mixture of isomers) | −1.109 |  |  |  | Activity: no
16 | C[C@]12CCC(=O)C=C1CC[C@@H]1[C@@H]2[C@@H](O)C[C@@]2(C)[C@H]1CC[C@]2(O)C(=O)CO [Hydrocortisone] | −3.049 |  |  |  | Z Score (LOPAC library screen, 3 μM, MTT, secondary neurosphere cultures, day 7): −3.049; Activity [6]: yes
17 | CN1C(=O)CCS(=O)(=O)C1c1ccc(Cl)cc1 (centres unmarked) [Chlormezanone] |  |  | no |  | Z Score: −0.9465; Z score [4]: −0.947
18 | Cl.N=C(N)c1ccccc1 [Benzamidine hydrochloride] |  |  |  |  | Activity: no; Z Score: 1.509; Z score: 1.509
19 | C[C@H](O)C(=O)C1=Nc2c(nc(N)[nH]c2=O)NC1 [Sepiapterin] |  | 1.795 |  | 1.795 | Activity [2]: no
20 | O=C(O)/C=C\C(=O)O.O=C(O)/C=C\C(=O)O.c1cc(CN2CCCCC2)cc(OCCCNc2nc3ccccc3s2)c1 [SKF 95282 dimaleate] |  |  |  |  | Z score (primary LOPAC screen, 3 μM, MTT, neurosphere proliferation): 0.424; Activity [2]: no
21 | O=C(O)c1cc(O)cc(C(=O)O)n1 [Chelidamic acid] |  | 0.726 | no | 0.7261 | 
22 | CC(COc1ccc(/C=C/c2ccccc2)cc1)[N+](C)(C)C.[I-] (centres unmarked) |  |  |  |  | Z Score: −11.13
23 | Cl.NCC(O)c1cc(O)c(O)cc1F (centres unmarked) [6-Fluoronorepinephrine hydrochloride] |  |  | no |  | Z Score: −1.168; Z score [4]: −1.168
